Experiments:
[1] = molecular target: T1, BCL-2 (Homo sapiens, UniProt P10415); test: BCL-2 TR-FRET Assay (primary PPI inhibition); type: binding; conditions: 60 min incubation; read-out: BCL2 (IC50 code, BCL-2 TR-FRET)
T1 construct: purchased BPS Bioscience #50222

[2] = molecular target: T2, BCL-XL (Homo sapiens, UniProt Q07817); test: BCL-XL TR-FRET Assay (primary PPI inhibition); type: binding; conditions: 60 min incubation; read-out: BCLxL (IC50 code, BCL-XL TR-FRET)
T2 construct: purchased BPS Bioscience #50223
Experimental: BCL-XL TR-FRET Assay (BPS Bioscience, #50223) Assay Condition: The following assay concentrations and times were used: 10.5 ng BCL-XL, 5 ul of 1:100 anti-His Tb-labeled donor, 5 ul of 1:100 Dye-labeled acceptor, 5 ul of 1:80 BCL-XL Peptide Ligand, and 2 ul of test compound, with 60 min incubation time. The results of the assay were read using a Clariostar (BMG Labtech) plate reader with the following parameters: TR FRET, 340 ex/620 and 665 em; 60 μsec Delay; and 500 μsec integration.

[3] = tested on: RS4-11 cells; test: Cell viability assay RS4-11 (CellTiter-Glo); type: cell-based; conditions: Homo sapiens, 72 h; RS4-11 cells, 3 days, CellTiter-Glo; read-out: RS4-11 (CC50 code)
Experimental: (§1) Assay Condition: Used culture medium for HEK293-DMEM (PanEco, Cat #C420), for the rest of the cell lines—culture medium RPMI-1640 (PanEco, Cat #C363).
(§2) Assay Procedure: Compounds were prepared as 200× stocks with serial dilution in 100% DMSO with a final concentration of 1×. Dispersed 40 μl in 384-well plates at a concentration of 2000 cells per well for HEK293 and at a concentration of 4000 cells per well for the rest of the cell lines using a robotic station Biomek (Beckman). Before adding compounds, the cells were incubated at 37° C. (HEK293 were incubated for a day before adding compounds).
(§3) A dilution plate was prepared by pouring 78 μl of the appropriate culture medium using a robotic station Biomek (Beckman). Sequentially, using a robotic station, 2 μl of substances were taken and added to 78 μl of culture medium (dilution of compounds 40×). Took from there 10 μl and added to the plates to the cells (dilution of compounds 5×). The plates were incubated for 3 days at a temperature 37° C. After 3 days, 10 μl of CellTiter-Glo (Promega) was added to the cells and the luminescence was measured.

[4] = tested on: MOLT-4 cells; test: Cell viability assay MOLT-4 (CellTiter-Glo); type: cell-based; conditions: Homo sapiens, 72 h; MOLT-4 cells, 3 days, CellTiter-Glo; read-out: MOLT-4 (CC50 code)
Experimental: as §1, §2, §3

[5] = Cell viability assay HEK293 (CellTiter-Glo); type: cell-based; conditions: human, HEK293 cells, read-out: HEK293 (CC50 code)
Experimental: as §1, §2, §3

[6] = tested on: caspase-3 and -7 activities in RS4-11 cells; test: Cas-3/7 activation (Caspase-Glo 3/7) in RS4-11 cells; type: cell-based; conditions: Homo sapiens, 3.5 h at 37° C. and 30 min at r.t., read-out: Cas-3/7 (EC50 code)
Experimental: Assay Principle: The Caspase-Glo 3/7 Assay is homogeneous, luminescent assay that measures caspase-3 and -7 activities. The assay provides a luminogenic caspase-3/7 substrate, which contains the tetrapeptide sequence DEVD, in a reagent optimized for caspase activity.
Assay Procedure: Incubate RS4-11 cells with varying concentrations of test compounds for 3.5 h in a humidified incubator at 37° C. and 5% CO2 and 30 min at r.t. Add 15 μl Caspase-Glo reagent to each well and incubate the plate for 30 min at r.t. Read on ClarioStar Plus instrument.
Materials: Promega Caspase-Glo (Promega, #8212); Frozen RS4-11 cells; 384-well white plate (Corning, #3570).
Instrumentation: ClarioStar Plus; Biomek FX for liquid handling (Beckman Coulter).

T1 sequence (P10415 whole entry): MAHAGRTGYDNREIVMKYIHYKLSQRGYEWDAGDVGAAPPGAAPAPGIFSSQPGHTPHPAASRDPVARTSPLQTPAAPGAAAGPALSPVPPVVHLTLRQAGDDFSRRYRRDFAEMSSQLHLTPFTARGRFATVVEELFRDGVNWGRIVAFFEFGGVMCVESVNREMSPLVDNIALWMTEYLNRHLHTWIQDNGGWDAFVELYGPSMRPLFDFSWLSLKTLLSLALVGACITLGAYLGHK
T2 sequence (Q07817 whole entry): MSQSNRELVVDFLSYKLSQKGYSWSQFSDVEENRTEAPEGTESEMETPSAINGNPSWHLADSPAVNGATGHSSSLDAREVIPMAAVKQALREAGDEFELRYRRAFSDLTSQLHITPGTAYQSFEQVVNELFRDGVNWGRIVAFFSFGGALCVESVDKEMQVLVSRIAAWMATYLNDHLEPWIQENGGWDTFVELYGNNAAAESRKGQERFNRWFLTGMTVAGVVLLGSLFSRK

Row | SMILES | IC50 [1] [nM] | IC50 [2] [nM] | CC50 [3] [nM] | CC50 [4] [nM] | CC50 at 3 days [5] [nM] | EC50 [6] [nM]
1 | O=C(NS(=O)(=O)c1ccc(NCC2CCOCC2)c([N+](=O)[O-])c1)c1ccc(N2CCC(CN3C(=O)C4(CCCC4)C3c3ccccc3)CC2)cc1Oc1cnc2[nH]ccc2c1 (centres unmarked) [Compound 2, N-[3-nitro-4-(tetrahydropyran-4-ylmethylamino)phenyl]sulfonyl-4-[4-[(3-oxo-1-phenyl-2-azaspiro[3.4]octan-2-yl)methyl]-1-piperidyl]-2-(1H-pyrrolo[2,3-b]pyridin-5-yloxy)benzamide] | > 50 | > 4000 | > 200 | > 10000 | > 25000 | > 250
2 | CC1(O)CC[C@H](CN2CCN(c3ccc(C(=O)NS(=O)(=O)c4ccc(NCC5CCOCC5)c([N+](=O)[O-])c4)c(Oc4cnc5[nH]ccc5c4)c3)CC2)[C@@H](c2ccc(Cl)cc2)C1 (stereo partly drawn) [Compound 28, 4-[4-[[(1S,2S)-2-(4-chlorophenyl)-4-hydroxy-4-methyl-cyclohexyl]methyl]piperazin-1-yl]-N-[3-nitro-4-(tetrahydropyran-4-ylmethylamino)phenyl]sulfonyl-2-(1H-pyrrolo[2,3-b]pyridin-5-yloxy)benzamide] | < 5 | ≤ 2000 | 100 to 200 | 2000 to 10000 | > 25000 | 100 to 250
3 | O=C(NS(=O)(=O)c1ccc(NCC2CCOCC2)c([N+](=O)[O-])c1)c1ccc(N2CCN(C[C@@H]3Cc4ccccc4CN3C(=O)C3CCNC3)CC2)cc1Oc1cnc2[nH]ccc2c1 (stereo partly drawn) [Compound 78, N-[3-nitro-4-(tetrahydropyran-4-ylmethylamino)phenyl]sulfonyl-4-[4-[[(3S)-2-(pyrrolidine-3-carbonyl)-3,4-dihydro-1H-isoquinolin-3-yl]methyl]piperazin-1-yl]-2-(1H-pyrrolo[2,3-b]pyridin-5-yloxy)benzamide] | 5 to 10 | 2000 to 4000 | > 200 | > 10000 | > 25000 | > 250
4 | O=C(NS(=O)(=O)c1ccc(NCC2CCOCC2)c([N+](=O)[O-])c1)c1ccc(N2CCN(CC3Cc4ccc(Cl)cc4CN3C(=O)C3CC3)CC2)cc1Oc1cnc2[nH]ccc2c1 (centres unmarked) [Compound 20, 4-[4-[[7-chloro-2-(cyclopropanecarbonyl)-3,4-dihydro-1H-isoquinolin-3-yl]methyl]piperazin-1-yl]-N-[3-nitro-4-(tetrahydropyran-4-ylmethylamino)phenyl]sulfonyl-2-(1H-pyrrolo[2,3-b]pyridin-5-yloxy)benzamide] | > 50 | > 4000 | > 200 | 2000 to 10000 | > 25000 | > 250
5 | O=C(NS(=O)(=O)c1ccc(NC2CCOC2)c([N+](=O)[O-])c1)c1ccc(N2CCC(CN3CCCCC3c3ccc(Cl)cc3)CC2)cc1Oc1cnc2[nH]ccc2c1 (centres unmarked) [Compound 63, 4-[4-[[2-(4-chlorophenyl)-1-piperidyl]methyl]-1-piperidyl]-N-[3-nitro-4-(tetrahydrofuran-3-ylamino)phenyl]sulfonyl-2-(1H-pyrrolo[2,3-b]pyridin-5-yloxy)benzamide] | > 50 | 2000 to 4000 | > 200 | 2000 to 10000 | > 25000 | > 250
6 | O=C(NS(=O)(=O)c1ccc(NCC2CCOCC2)c([N+](=O)[O-])c1)c1ccc(N2CCN(CC(c3ccccc3)c3ccc(F)c(F)c3)CC2)cc1Oc1cnc2[nH]ccc2c1 (centres unmarked) [Compound 13, 4-[4-[2-(3,4-difluorophenyl)-2-phenyl-ethyl]piperazin-1-yl]-N-[3 nitro-4-(tetrahydropyran-4-ylmethylamino)phenyl]sulfonyl-2 (1H-pyrrolo[2,3-b]pyridin-5-yloxy)benzamide] | > 50 | > 4000 | > 200 | < 2000 | ≤ 10000 | > 250
7 | CC(C)C(=O)N1Cc2cc(Cl)ccc2C[C@H]1CN1CCN(c2ccc(C(=O)NS(=O)(=O)c3ccc(NCC4CCOCC4)c([N+](=O)[O-])c3)c(Oc3cnc4[nH]ccc4c3)c2)CC1 [Compound 57, 4-[4-[[(3S)-7-chloro-2-(2-methylpropanoyl)-3,4-dihydro-1H-isoquinolin-3-yl]methyl]piperazin-1-yl]-N-[3-nitro-4-(tetrahydropyran-4-ylmethylamino)phenyl]sulfonyl-2-(1H-pyrrolo[2,3-b]pyridin-5-yloxy)benzamide] | > 50 | > 4000 | > 200 | 2000 to 10000 | 10000 to 25000 | > 250
8 | O=C(NS(=O)(=O)c1ccc(NCC2CCOCC2)c([N+](=O)[O-])c1)c1ccc(N2CCC(CN3CCCCC3c3ccc(Cl)cc3)CC2)cc1Oc1cnc2[nH]ccc2c1 (centres unmarked) [Compound 47, 4-[4-[[2-(4-chlorophenyl)-1-piperidyl]methyl]-1-piperidyl]-N-[3-nitro-4-(tetrahydropyran-4-ylmethylamino)phenyl]sulfonyl-2-(1H-pyrrolo[2,3-b]pyridin-5-yloxy)benzamide] | 10 to 50 |  | > 200 | 2000 to 10000 | 10000 to 25000 | > 250
9 | Cc1cc(Cl)ccc1C1N(CC2CCN(c3ccc(C(=O)NS(=O)(=O)c4ccc(NCC5CCOCC5)c([N+](=O)[O-])c4)c(Oc4cnc5[nH]ccc5c4)c3)CC2)C(=O)C12CCCC2 (centres unmarked) [Compound 3, 4-[4-[[1-(4-chloro-2-methyl-phenyl)-3-oxo-2-azaspiro[3.4]octan-2-yl]methyl]-1-piperidyl]-N-[3-nitro-4-(tetrahydropyran-4-ylmethylamino)phenyl]sulfonyl-2-(1H-pyrrolo[2,3-b]pyridin-5-yloxy)benzamide] | 10 to 50 | 2000 to 4000 | > 200 | 2000 to 10000 | > 25000 | > 250
10 | CC(C)C(=O)N1Cc2ccccc2C[C@@H]1CN1CCN(c2ccc(C(=O)NS(=O)(=O)c3ccc(NCC4CCOCC4)c([N+](=O)[O-])c3)c(Oc3cnc4[nH]ccc4c3)c2)CC1 [Compound 37, 4-[4-[[(3R)-2-(2-methylpropanoyl)-3,4-dihydro-1H-isoquinolin-3-yl]methyl]piperazin-1-yl]-N-[3-nitro-4-(tetrahydropyran-4-ylmethylamino)phenyl]sulfonyl-2-(1H-pyrrolo[2,3-b]pyridin-5-yloxy)benzamide] | > 50 | > 4000 |  |  |  | > 250
11 | O=C(NS(=O)(=O)c1ccc(NCC2CCOCC2)c([N+](=O)[O-])c1)c1ccc(N2CCC(CN3Cc4ccccc4C4(CCC4)C3)CC2)cc1Oc1cnc2[nH]ccc2c1 [Compound 46, N-[3-nitro-4-(tetrahydropyran-4-ylmethylamino)phenyl]sulfonyl-2-(1H-pyrrolo[2,3-b]pyridin-5-yloxy)-4-[4-(spiro[1,3-dihydroisoquinoline-4,1′-cyclobutane]-2-ylmethyl)-1-piperidyl]benzamide] | > 50 | > 4000 | > 200 | 2000 to 10000 | > 25000 | > 250
12 | CC1(C)Cc2ccccc2CN1CC1CCN(c2ccc(C(=O)NS(=O)(=O)c3ccc(NCC4CCOCC4)c([N+](=O)[O-])c3)c(Oc3cnc4[nH]ccc4c3)c2)CC1 [Compound 38, 4-[4-[(3,3-dimethyl-1,4-dihydroisoquinolin-2-yl)methyl]-1-piperidyl]-N-[3-nitro-4-(tetrahydropyran-4-ylmethylamino)phenyl]sulfonyl-2-(1H-pyrrolo[2,3-b]pyridin-5-yloxy)benzamide] | > 50 | > 4000 |  |  |  | > 250

— patent US11834450B2, “Compounds having ((3-nitrophenyl)sulfonyl)acetamide as BCL-2 inhibitors” (Eil Therapeutics, Inc., priority 2021, dated 2023)
